From patent US12611406B2, “Oxopiperazine derivatives for the treatment of cancer” (Inthera Bioscience AG, priority 2020, dated 2026)
Entries after “also recorded” stand apart in the source; their conditions may differ.

What was measured:
22Rv1 [1] = assay: Caspase 3/7 activation (apoptosis); assay type: cell-based; design: key: “+” (present); “−” (absent); conditions: Rb wt, p53 wt
Excerpt: (§1) It was noted that cancer cell lines that were growth inhibited at lower concentrations of Compound 1 more frequently responded to Compound 1 exposure with an apoptotic reaction (FIG. 2). Since PC cell lines were among the cancer cell types displaying a particularly high sensitivity to Compound 1 treatment (FIG. 1), the potentially underlying biological reasons for an apoptotic response were investigated in a set of PC cell lines consisting of DU-145, LNCaP, 22Rv1 and PC3 cells.
(§2) In table 1, “wt”=wild-type; “x”=cells harboring Rb and p53 deficiencies; “+” (present) or “−” (absent) indicate the arrest (i.e. accumulation) of cells in S-phase triggered by Compound 1, which coincided with accumulation of the DNA damage marker phosphorylated gamma H2AX (γH2AX; see FIG. 3A). These events are followed by activation of caspases 3 and 7 as indicators of cell apoptosis as indicated by “+” (present) or “−” (absent). In cancer cells with intact Rb and/or p53 functions (wt=wild-type), Compound 1 induced growth arrest but not a substantial increase of cells in S-phase (=S-phase arrest). Upon release of treatment, such cells are able to proliferate again.

LNCaP = assay: Caspase 3/7 activation (apoptosis); assay type: cell-based; design: key: “+” (present); “−” (absent); conditions: Rb wt, p53 wt
Excerpt: as §1, §2

NCI-H146 = assay: Caspase 3/7 activation (apoptosis); assay type: cell-based; design: key: “+” (present); “−” (absent); conditions: Rb x, p53 x
Excerpt: as §1, §2

NCI-H209 = assay: Caspase 3/7 activation (apoptosis); assay type: cell-based; design: key: “+” (present); “−” (absent); conditions: Rb x, p53 x
Excerpt: as §1, §2

NCI-H660 = assay: Caspase 3/7 activation (apoptosis); assay type: cell-based; design: key: “+” (present); “−” (absent); conditions: Rb x, p53 x
Excerpt: as §1, §2

NCI-H69 = assay: Caspase 3/7 activation (apoptosis); assay type: cell-based; design: key: “+” (present); “−” (absent); conditions: Rb x, p53 x
Excerpt: as §1, §2

NCI-H82 = assay: Caspase 3/7 activation (apoptosis); assay type: cell-based; design: key: “+” (present); “−” (absent); conditions: Rb x, p53 x
Excerpt: as §1, §2

PC3 = assay: Caspase 3/7 activation (apoptosis); assay type: cell-based; design: key: “+” (present); “−” (absent); conditions: Rb wt, p53 x
Excerpt: as §1, §2

SCLC-21H = assay: Caspase 3/7 activation (apoptosis); assay type: cell-based; design: key: “+” (present); “−” (absent); conditions: Rb x, p53 x
Excerpt: as §1, §2

Y-79 = assay: Caspase 3/7 activation (apoptosis); assay type: cell-based; design: key: “+” (present); “−” (absent); conditions: Rb x, p53 wt
Excerpt: as §1, §2

22Rv1 [2] = assay: 22Rv1 prostate cancer CDX mouse model; assay type: in vivo
Excerpt: Left panel: Tumor growth curves. Right panel: Body weight development. The respective dosing regimen is indicated as bars below the x-axis. QD: once daily treatment; po: per os.
Left panel: Tumor growth curves. Right panel: Body weight development. The dosing regimen is indicated as dots below the curves. BID: twice daily treatment. QW: once weekly treatment. p.o.: per oral.
NCI-H660 cells represent a rather far advanced PC type in which not only the tumor suppressor functions of Rb1 and p53 have been lost (see Table 1). Furthermore, the cells already have developed a small cell phenotype characteristic of advanced treatment-resistant PC. In contrast, 22Rv1 tumor cells that are wild-type for Rb1 and p53 pathways were less sensitive to Compound 1 treatment when a once weekly dosing scheme was used.
Values larger than 100% indicate tumor regression.

[3] = 28-day once weekly oral repeated-dose DRF TK study in Beagle dogs (mesylate salt), plasma; assay type: in vivo; conditions: for AUC / Cmax: both sexes, Beagle, dog, plasma, po
Protocol: The objective of the study was to determine the TK profile of Compound 1 following 4 weekly oral administrations to Beagle dog and to assess reversibility of any changes following a 13-day recovery period.
The test item Compound 1 (mesylate salt) was administered in 4 weekly doses by oral gavage to groups of Beagle dogs (n=2/sex/group) at dose levels of 10, 15, and 20 mg/kg bodyweight per week. A suspension of 0.5% methylcellulose (w/v) in sterile water served as vehicle. Blood samples for PK analysis were collected for each dosing day (Day 1, 8, 15, and 22) at pre-dose, 0.25, 0.5, 1, 2, 4, 6, 8, 12, and 24 hours after administration.
Total plasma concentrations of Compound 1 were analyzed using a qualified LC-MS/MS method.
Dosing at 15 mg/kg/adm was limited to 2 weekly doses, since animals were subjected to necropsy investigation 3 days after the second dose (Day 8) in order to investigate possible macroscopic changes during the treatment period. n.d.: not determined. AUC parameters were calculated using GraphPad Prism version 9.

[4] = 5-day daily oral repeated-dose pilot study in cynomolgus monkeys (mesylate salt); assay type: in vivo; conditions: for Tmax: all groups
Protocol: The objective of the study was to determine the TK profile of Compound 1 following its daily administration through oral gavage (po) for 5 days to cynomolgus monkeys.
Naïve male and female cynomolgus monkeys (2 animals/sex/group) were orally administered Compound 1 (mesylate salt) at dose levels of 8, 12 or 16 mg/kg/day for 5 consecutive days. The vehicle was 0.5% (w/v) methyl cellulose 400 in sterile water. For TK evaluation blood samples were collected from each animal on Days 1 and 5 at pre-dose, 15 min, 30 min, as well as 1, 2, 4, 6, 8, 12, and 24 hours post-dose.

[5] = 10 mg/kg, 10 mg/kg weekly, Day 1
[6] = 10 mg/kg, 10 mg/kg weekly, Day 8
[7] = 10 mg/kg, 10 mg/kg weekly, Day 15
[8] = 10 mg/kg, 10 mg/kg weekly, Day 22
[9] = 15 mg/kg, 15 mg/kg weekly, Day 1
[10] = 15 mg/kg, 15 mg/kg weekly, Day 8

## CC(C)C[C@@H]1NCCN([C@@H](CC(C)C)C(=O)N2CCC3(C[C@@H]2C)OCC(CN2CCCC2)CO3)C1=O (stereo partly drawn) [Compound 1, (S)-3-isobutyl-1-((S)-4-methyl-1-((S)-8-methyl-3-(pyrrolidin-1-ylmethyl)-1,5-dioxa-9-azaspiro[5.5]undecan-9-yl)-1-oxopentan-2-yl)piperazin-2-one]
22Rv1 [1]
  Caspase 3/7, 8: −
LNCaP
  Caspase 3/7, 8: −
NCI-H146
  Caspase 3/7, 8: +
NCI-H209
  Caspase 3/7, 8: +
NCI-H660
  Caspase 3/7 activation: +
NCI-H69
  Caspase 3/7, 8: +
NCI-H82
  Caspase 3/7, 8: +
PC3
  Caspase 3/7, 8: −
SCLC-21H
  Caspase 3/7, 8: +
Y-79
  Caspase 3/7, 8: −
22Rv1 [2]; 3 mg/kg oral
  tumor response: cytostatic growth inhibition
22Rv1 [2]; 3 mg/kg oral, 7d on/7d off compared to same dose daily
  anti-tumor activity, every other week vs daily: almost the same anti-tumor growth activity
22Rv1 [2]; 30 mg/kg BID once weekly (60 mg/kg weekly)
  Tumor growth inhibition: approx. 50%
22Rv1 [2]; once weekly 60 mg/kg/day as 30 mg/kg BID, 5 weeks, p 0.001
  Tumor growth inhibition: 47% (0.001)/**5 weeks
[3]; 15 mg/kg/adm, limited to 2 oral doses (Days 1 and 8)
  clinical signs: reduced food and water intake
[3]; [5]
  AUC: 1720 ng·h/mL
  Cmax: 536 ng/mL
[3]; [6]
  AUC: 1590 ng·h/mL
  Cmax: 512 ng/mL
[3]; [7]
  AUC: 1660 ng·h/mL
  Cmax: 497 ng/mL
[3]; [8]
  AUC: 1170 ng·h/mL
  Cmax: 360 ng/mL
[3]; [9]
  AUC: 2630 ng·h/mL
  Cmax: 752 ng/mL
[3]; [10]
  AUC: 2300 ng·h/mL
  Cmax: 506 ng/mL
[3]; 20 mg/kg, Day 1
  AUC: 3010 ng·h/mL
  Cmax: 994 ng/mL
[3]; single oral administration of 20 mg/kg/adm, 20 mg/kg
  tolerability: serious adverse event (SAE) on day 5; also recorded: not tolerated in one female Beagle dog
[3]; weekly oral for 4 consecutive weeks at 10 mg/kg/adm
  tolerability: tolerated
[4]; 8 mg/kg/day, Day 1
  Total AUC: 85 ng·h/mL
[4]; 8 mg/kg/day, Day 5
  Total AUC: 175 ng·h/mL
[4]; 12 mg/kg/day, Day 1
  Total AUC: 106 ng·h/mL
[4]; 12 mg/kg/day, Day 5
  Total AUC: 329 ng·h/mL
[4]; 16 mg/kg/day, Day 1
  Total AUC: 351 ng·h/mL
[4]; 16 mg/kg/day, Day 5
  Total AUC: 561 ng·h/mL
[4]; both sexes, cynomolgus monkey, serum, po, 8 mg/kg/day, Day 1, read-out: Peak serum levels (Cmax)
  Cmax: 45 ng/mL
[4]; both sexes, cynomolgus monkey, serum, po, 8 mg/kg/day, Day 5, read-out: Cmax
  Cmax: 64 ng/mL
[4]; both sexes, cynomolgus monkey, serum, po, 12 mg/kg/day, Day 1, read-out: Peak serum levels (Cmax)
  Cmax: 42 ng/mL
[4]; both sexes, cynomolgus monkey, serum, po, 12 mg/kg/day, Day 5, read-out: Cmax
  Cmax: 72 ng/mL
[4]; both sexes, cynomolgus monkey, serum, po, 16 mg/kg/day, Day 1, read-out: Peak serum levels (Cmax)
  Cmax: 136 ng/mL
[4]; both sexes, cynomolgus monkey, serum, po, 16 mg/kg/day, Day 5, read-out: Cmax
  Cmax: 112 ng/mL
[4]; both sexes, cynomolgus monkey, serum, po, Day 1
  Tmax: 0.5 to 0.9 h
[4]; both sexes, cynomolgus monkey, serum, po, Day 5
  Tmax: 0.5 to 1.75 h
[4]; both sexes, cynomolgus monkey, serum, po, all groups and time points, read-out: half-life (T1/2)
  half-life: 5 to 7 h
[4]; oral 8, 12, and 16 mg/kg/day for 5 consecutive days, slight body weight loss, changes in hematology, urinalysis, clinical chemistry
  tolerability: tolerated
